Data on 1 compound can be found in patent publication US20260258030A1, “USE AND TREATMENT METHOD OF AZETIDINE DERIVATIVE” (SICHUAN KELUN-BIOTECH BIOPHARMACEUTICAL CO., LTD., priority 2022, published 2026).

Experiment [1] deals with STAT5 phosphorylation induced by cytokine IL-2 stimulation in CD4+ T cells. Put plainly: Inhibition of STAT5 phosphorylation induced by IL-2 in CD4+ T cells in human whole blood (flow cytometry). It is filed as cell-based. From the text: (§1) The inhibitory effect of Compound 8 on STAT5 phosphorylation induced by cytokine IL-2 stimulation in CD4+ T cells in human whole blood, as well as on STAT3 phosphorylation induced by cytokine IL-6 stimulation in CD4+ T cells in human whole blood, was detected using flow cytometry.
On the technique in general: In flow cytometry, cells or beads pass a laser one at a time.

Another experiment has as its target PKA (protein kinase A) (Homo sapiens, UniProt P17612). Put plainly: In vitro kinase inhibition, enzymatic assay, PKA. The following applies: at a concentration of 200 nM; read-out: inhibition rate on PKA. Type of experiment: biochemical. From the text:
(§2) An in vitro enzymatic assay system was used to test the inhibitory effect of Compound 8 on certain kinase targets.

Experiment [2] concerns STAT3 phosphorylation induced by cytokine IL-6 stimulation in CD4+ T cells. Kind of experiment: Inhibition of STAT3 phosphorylation induced by IL-6 in CD4+ T cells in human whole blood (flow cytometry). It is filed as cell-based.
Text: as §1

Experiment [3] concerns the target p70S6K (p70 ribosomal protein S6 kinase) (Homo sapiens, UniProt P23443). Put plainly: In vitro kinase inhibition, enzymatic assay, p70S6K. Type of experiment: biochemical. The following applies: at a concentration of 200 nM; read-out: inhibition rate on p70S6K.
Text: as §2

Chain of p70S6K (p70 ribosomal protein S6 kinase) (P23443 whole entry): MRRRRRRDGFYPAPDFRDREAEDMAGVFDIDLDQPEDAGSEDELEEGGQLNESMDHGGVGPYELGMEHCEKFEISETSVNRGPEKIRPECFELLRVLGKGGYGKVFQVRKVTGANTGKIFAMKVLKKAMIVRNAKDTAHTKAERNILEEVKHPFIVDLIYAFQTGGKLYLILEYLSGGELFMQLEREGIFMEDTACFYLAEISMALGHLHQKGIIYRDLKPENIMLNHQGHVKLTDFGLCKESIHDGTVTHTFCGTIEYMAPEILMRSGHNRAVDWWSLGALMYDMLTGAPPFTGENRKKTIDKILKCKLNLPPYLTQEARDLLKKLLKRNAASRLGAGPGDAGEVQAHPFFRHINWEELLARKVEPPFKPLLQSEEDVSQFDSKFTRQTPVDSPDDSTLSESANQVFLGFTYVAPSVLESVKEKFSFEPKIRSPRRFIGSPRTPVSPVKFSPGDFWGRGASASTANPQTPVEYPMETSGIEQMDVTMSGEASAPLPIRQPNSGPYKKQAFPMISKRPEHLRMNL

Turning to `CCS(=O)(=O)N1CC(CC#N)(n2cc(-c3ccnc4[nH]ccc34)cn2)C1` [Compound 8], the IC50 was 0.46 ± 0.03 µM in experiment [1] and 1.51 ± 0.06 µM in experiment [2]. In addition, the inhibition at 0.2 µM on PKA (protein kinase A) is 75%; in experiment [3], 67%.

The IC50 is the point on the concentration scale where inhibition reaches its midpoint. Higher therefore signals lower potency. As usually defined, the inhibition is the drop in the measured response relative to a control, in per cent.
